In article PMC5854716, “Synthesis, molecular docking, ctDNA interaction, DFT calculation and evaluation of antiproliferative and anti-Toxoplasma gondii activities of 2,4-diaminotriazine-thiazole derivatives” (Medicinal Chemistry Research, 2018):

Legend:
[1] = tested on: normal mouse fibroblast Balb/3T3 cells; test: In vitro cytotoxicity (SRB), Balb/3T3; format: cell-based; conditions: mean ± SD; for IC50: Mus musculus, BALB/3T3, 72 h exposure; for IC50 Balb/3T3: 72 h exposure
Protocol: (§1) Biphenotypic B myelomonocytic leukemia MV4-11, human lung carcinoma A549, human breast carcinoma MCF-7, and normal mouse fibroblast BALB/3T3 cells were obtained from American Type Culture Collection (Rockville, Maryland, USA). All the cell lines are being maintained at the Institute of Immunology and Experimental Therapy, Wroclaw, Poland. MV4-11 cells were cultured in RPMI 1640 medium (Gibco, UK) with 2 mM L-glutamine adjusted to contain 1.0 mM sodium pyruvate, and 10% fetal bovine serum (FBS) (all from Sigma-Aldrich, Germany). A549 cells were cultured in RPMI 1640+ Opti-MEM (1:1) (both from Gibco, UK), MCF-7 cells in Eagle medium (IIET, Wroclaw, Poland), BALB/3T3 in Dulbecco medium (IIET, Poland) supplemented with 2 mM L-glutamine and 1.0 mM sodium pyruvate, 10% fetal bovine serum (all from Sigma-Aldrich, Germany). The MCF-7 cell culture was supplemented with 0.8 mg/l of insulin (Sigma-Aldrich, Germany). All culture media were supplemented with 100 units/ml penicillin, and 100 µg/ml streptomycin (both from Polfa Tarchomin S.A., Poland). All cell lines were grown at 37 °C with 5% CO2 humidified atmosphere (Łączkowski et al. [2014], [2016a]). Prior to usage, the compounds were dissolved in DMSO and culture medium (1: 9) to the concentration of 1 mg/ml, and subsequently diluted in culture medium to reach the required concentrations (0.1, 1, 10, and 100 µg/ml) (Łączkowski et al. [2014], [2016a]). Twenty-four hours prior to the addition of the tested compounds, the cells counted using Burker hemocytometer were plated in 96-well plates (Sarstedt, Germany) at a density of 1 × 10^4 cells per well. The assay was performed after 72 h of exposure to varying concentrations of the tested agents. The in vitro cytotoxic effect of all agents was examined using the SRB assay for adherent cells (A549, MCF-7, and BALB/3T3) or MTT assay for leukemia cells (MV4-11) as described previously. […] Each compound in each concentration was tested in triplicate in a single experiment, which was repeated 3–7 times (Rubinstein et al. [1990]; Bramson et al. [1995]). Cells were attached to the bottom of plastic wells by fixing them with cold 50% TCA (trichloroacetic acid, POCH, Gliwice, Poland) on top of the culture medium in each well. The plates were incubated at 4 °C for 1 h and then washed five times with tap water. The cellular material fixed with TCA was stained with 0.1% sulforhodamine B (SRB, Sigma-Aldrich, Germany) and dissolved in 1% acetic acid (POCH, Gliwice, Poland) for 30 min. Unbound dye was removed by rinsing (4×) in 1% acetic acid. The protein-bound dye was extracted with 10 mM unbuffered Tris base (Sigma-Aldrich, Germany) for determination of the optical density (λ = 540 nm) in a computer-interfaced, 96-well Synergy H4 (BioTek Instruments USA) photometer microtiter plate reader (Sidoryk et al. [2012]).

[2] = tested on: human breast carcinoma MCF-7 cells; test: In vitro antiproliferative assay (SRB), MCF-7; format: cell-based; conditions: mean ± SD; for IC50: Homo sapiens, MCF7, 72 h exposure; for IC50 MCF-7: 72 h exposure
Protocol: as §1

[3] = Cell viability assay (MTT), VERO; format: cell-based, Cercopithecus aethiops; conditions: African green monkey (Cercopithecus aethiops), VERO kidney epithelial cells
In short: (§2)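 L929 and VERO cells seeded at 1.0 × 10^4/well, attached 24 h, then exposed 24 h to compounds at 0.9–125.00 μg/ml (from DMSO stock). MTT (1 mg/ml) added for 2 h at 37 °C, formazan dissolved in DMSO, OD read at 550 nm. Viability expressed as percentage of 2.5% DMSO-treated controls; triplicate.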

[4] = tested on: human lung carcinoma A549 cells; test: In vitro antiproliferative assay (SRB), A549; format: cell-based; conditions: mean ± SD; for IC50: Homo sapiens, A549, 72 h exposure; for IC50 A549: 72 h exposure
Protocol: as §1

[5] = Cell viability assay (MTT), L929; format: cell-based, Mus musculus; conditions: mouse, L929 fibroblast cells
In short: as §2

Work on `C/C(=N\Nc1nc(-c2ccc(F)cc2)cs1)c1ccc(Nc2nc(N)nc(N)n2)cc1` [Compound 4a, (E)-N^2-(4-(1-(2-(4-(4-fluorophenyl)-1,3-thiazol-2-yl)hydrazinylidene)ethyl)phenyl)-1,3,5-triazine-2,4,6-triamine] yielded a melting point of 223 to 225 °C, an IC50 [1] of 62.6 ± 8.69 µg/mL and an IC50 [2] of 4.28 ± 0.984 µg/mL. It also gave a viability at 24 h, 0.9 µg/ml [3] of 90.5%, a viability at 24 h, 1.8 µg/ml [3] of 97.6% and a viability at 24 h, 3.9 µg/ml [3] of 100%. It also gave a viability at 24 h, 7.8 µg/ml [3] of 95.9%, a viability at 24 h, 15.6 µg/ml [3] of 103% and a viability at 24 h, 31.2 µg/ml [3] of 107%. It also gave a viability at 24 h, 62.5 µg/ml [3] of 105%, a viability at 24 h, 125 µg/ml [3] of 100% and an IC50 [4] of 38.6 ± 4.17 µg/mL. The viability at 24 h, 0.9 µg/ml [5] was 96.6%, the viability at 24 h, 1.8 µg/ml [5] was 101% and the viability at 24 h, 3.9 µg/ml [5] was 105%. It also gave a viability at 24 h, 7.8 µg/ml [5] of 99%, a viability at 24 h, 15.6 µg/ml [5] of 102% and a viability at 24 h, 31.2 µg/ml [5] of 111%. It also gave a viability at 24 h, 62.5 µg/ml [5] of 115% and a viability at 24 h, 125 µg/ml [5] of 111%.

Molecule `C/C(=N\Nc1nc(-c2ccc(Cl)cc2)cs1)c1ccc(Nc2nc(N)nc(N)n2)cc1` [Compound 4b, (E)-N^2-(4-(1-(2-(4-(4-chlorophenyl)-1,3-thiazol-2-yl)hydrazinylidene)ethyl)phenyl)-1,3,5-triazine-2,4,6-triamine] has a melting point of 237 to 239 °C, an IC50 [1] greater than 100 µg/mL and an IC50 [2] of 3.23 ± 0.401 µg/mL. For the same molecule, the viability at 24 h, 0.9 µg/ml [3] was 93.5%, the viability at 24 h, 1.8 µg/ml [3] was 95.8% and the viability at 24 h, 3.9 µg/ml [3] was 90.1%. For the same molecule, the viability at 24 h, 7.8 µg/ml [3] was 94.7%, the viability at 24 h, 15.6 µg/ml [3] was 103% and the viability at 24 h, 31.2 µg/ml [3] was 115%. For the same molecule, the viability at 24 h, 62.5 µg/ml [3] was 115%, the viability at 24 h, 125 µg/ml [3] was 113% and the IC50 [4] was 23.8 ± 4.41 µg/mL. For the same molecule, the viability at 24 h, 0.9 µg/ml [5] was 94.8%, the viability at 24 h, 1.8 µg/ml [5] was 95.3% and the viability at 24 h, 3.9 µg/ml [5] was 99.4%. It also gave a viability at 24 h, 7.8 µg/ml [5] of 99.4%, a viability at 24 h, 15.6 µg/ml [5] of 110% and a viability at 24 h, 31.2 µg/ml [5] of 113%. It also gave a viability at 24 h, 62.5 µg/ml [5] of 119% and a viability at 24 h, 125 µg/ml [5] of 118%.

In the case of `C/C(=N\Nc1nc(-c2ccc(C)cc2)cs1)c1ccc(Nc2nc(N)nc(N)n2)cc1` [Compound 4c, (E)-N^2-(4-(1-(2-(4-(4-tolyl)-1,3-thiazol-2-yl)hydrazinylidene)ethyl)phenyl)-1,3,5-triazine-2,4,6-triamine], the melting point is reported as 231 to 233 °C, the IC50 [1] is reported as greater than 100 µg/mL and the IC50 [2] is reported as 8.33 ± 2.83 µg/mL. For the same molecule, the viability at 24 h, 0.9 µg/ml [3] was 92.4%, the viability at 24 h, 1.8 µg/ml [3] was 102% and the viability at 24 h, 3.9 µg/ml [3] was 99%. It also gave a viability at 24 h, 7.8 µg/ml [3] of 101%, a viability at 24 h, 15.6 µg/ml [3] of 99.6% and a viability at 24 h, 31.2 µg/ml [3] of 102%. It also gave a viability at 24 h, 62.5 µg/ml [3] of 112%, a viability at 24 h, 125 µg/ml [3] of 109% and an IC50 [4] of 62.4 ± 11.5 µg/mL. The viability at 24 h, 0.9 µg/ml [5] was 98.2%, the viability at 24 h, 1.8 µg/ml [5] was 95.5% and the viability at 24 h, 3.9 µg/ml [5] was 98.2%. For the same molecule, the viability at 24 h, 7.8 µg/ml [5] was 92.9%, the viability at 24 h, 15.6 µg/ml [5] was 102% and the viability at 24 h, 31.2 µg/ml [5] was 105%. The viability at 24 h, 62.5 µg/ml [5] was 106% and the viability at 24 h, 125 µg/ml [5] was 118%.

In the case of `C/C(=N\Nc1nc(-c2cc3ccccc3oc2=O)cs1)c1ccc(Nc2nc(N)nc(N)n2)cc1` [Compound 4f, (E)-3-(2-(2-(1-(4-(4,6-diamino-1,3,5-triazin-2-yloamino)phenyl)ethylidene)hydrazinyl)thiazol-4-yl)-2H-chromen-2-on], the “IC50 Balb/3T3” value [1] is reported as greater than 100 µg/mL, the “IC50 MCF-7” value [2] is reported as “─” and the “IC50 A549” value [4] is reported as “no antiproliferative activity”.

With `CC(=O)Nc1ccc(-c2csc(N/N=C(\C)c3ccc(Nc4nc(N)nc(N)n4)cc3)n2)cc1` [Compound 4g, (E)-N^2-(4-(2-(2-(1-(4-(4,6-diamino-1,3,5-triazin-2-yloamino)phenyl)ethylidene)hydraziny)thiazol-4-yl)phenyl)-acetamide] the “IC50 Balb/3T3” value [1] was greater than 100 µg/mL, the “IC50 MCF-7” value [2] was 6.67 ± 2.958 µg/mL and the “IC50 A549” value [4] was “no antiproliferative activity”.

`C/C(=N\Nc1nc(-c2ccc([N+](=O)[O-])cc2)cs1)c1ccc(Nc2nc(N)nc(N)n2)cc1` [Compound 4h, (E)-N^2-(4-(1-(2-(4-(4-nitrophenyl)-1,3-thiazol-2-yl)hydrazinylidene)ethyl)phenyl)-1,3,5-triazine-2,4,6-triamine] gave an IC50 [1] greater than 100 µg/mL, an IC50 [2] of 8.72 ± 5.28 µg/mL and a viability at 24 h, 0.9 µg/ml [3] of 104%. It also gave a viability at 24 h, 1.8 µg/ml [3] of 99.4%, a viability at 24 h, 3.9 µg/ml [3] of 106% and a viability at 24 h, 7.8 µg/ml [3] of 109%. For the same molecule, the viability at 24 h, 15.6 µg/ml [3] was 110%, the viability at 24 h, 31.2 µg/ml [3] was 109% and the viability at 24 h, 62.5 µg/ml [3] was 109%. It also gave a viability at 24 h, 125 µg/ml [3] of 104%, an IC50 [4] of 33.6 ± 2.42 µg/mL and a viability at 24 h, 0.9 µg/ml [5] of 100%. The viability at 24 h, 1.8 µg/ml [5] was 98.5%, the viability at 24 h, 3.9 µg/ml [5] was 100% and the viability at 24 h, 7.8 µg/ml [5] was 105%. It also gave a viability at 24 h, 15.6 µg/ml [5] of 105%, a viability at 24 h, 31.2 µg/ml [5] of 114% and a viability at 24 h, 62.5 µg/ml [5] of 118%. It also gave a viability at 24 h, 125 µg/ml [5] of 104%.

With `C/C(=N\Nc1nc(-c2ccc(Cl)c(Cl)c2)cs1)c1ccc(Nc2nc(N)nc(N)n2)cc1` [Compound 4i, (E)-N^2-(4-(1-(2-(4-(3,4-dichlorophenyl)-1,3-thiazol-2-yl)hydrazinylidene)ethyl)phenyl)-1,3,5-triazine-2,4,6-triamine] the IC50 [1] was greater than 100 µg/mL, the IC50 [2] was 3.69 ± 1.64 µg/mL and the viability at 24 h, 0.9 µg/ml [3] was 97.5%. For the same molecule, the viability at 24 h, 1.8 µg/ml [3] was 93.7%, the viability at 24 h, 3.9 µg/ml [3] was 93.9% and the viability at 24 h, 7.8 µg/ml [3] was 92.6%. It also gave a viability at 24 h, 15.6 µg/ml [3] of 97.3%, a viability at 24 h, 31.2 µg/ml [3] of 112% and a viability at 24 h, 62.5 µg/ml [3] of 111%. The IC50 [4] was 57.5 ± 20.7 µg/mL, the viability at 24 h, 0.9 µg/ml [5] was 101% and the viability at 24 h, 1.8 µg/ml [5] was 97.9%. The viability at 24 h, 3.9 µg/ml [5] was 96.1%, the viability at 24 h, 7.8 µg/ml [5] was 100% and the viability at 24 h, 15.6 µg/ml [5] was 98.1%. The viability at 24 h, 31.2 µg/ml [5] was 108% and the viability at 24 h, 62.5 µg/ml [5] was 100%.

In the case of `C/C(=N\Nc1nc(-c2ccc(NS(C)(=O)=O)cc2)cs1)c1ccc(Nc2nc(N)nc(N)n2)cc1` [Compound 4j, (E)-N-(4-(2-(2-(1-(4-(4,6-diamino-1,3,5-triazin-2-yloamino)phenyl)ethylidene)hydrazinyl)thiazol-4-yl)phenyl)-methanesulfonamide], the “IC50 Balb/3T3” value [1] is reported as greater than 100 µg/mL, the “IC50 MCF-7” value [2] is reported as 5.95 ± 2.165 µg/mL and the “IC50 A549” value [4] is reported as “no antiproliferative activity”.

For `C/C(=N\Nc1nc(-c2ccc3[nH]c(=O)oc3c2)cs1)c1ccc(Nc2nc(N)nc(N)n2)cc1` [Compound 4l, (E)-6-(2-(2-(1-(4-(4,6-diamino-1,3,5-triazin-2-yloamino)phenyl)ethylidene)hydrazinyl)thiazol-4-yl)-benzo[d]oxazol-2(3H)-on], the “IC50 Balb/3T3” value [1] was greater than 100 µg/mL.
